These results are taken from publication PMC4945070 (PLoS Neglected Tropical Diseases, 2016).

Holding throughout (experiment): cell-based
Holding throughout (set-up): Emax: dose or concentration left out as unconfirmed

Assay [1] addresses H. contortus L-AChR1.4 (UNC-63, UNC-38, ACR-8, UNC-29.4) (Haemonchus contortus, UniProt A9XX24+D6MYF2+D6MYF3+D6MYF4). In kind it is cell-based. The conditions noted are these: for Emax at 100 µM: agonists at 100 μM, normalized to 100 μM acetylcholine; for Emax at 100 µM / Emax: read-out: Max. Current ± S.E.; for blocking of ACh elicited currents / Max Inhibition ± S.E.: dTC 100 μM, DHβE 10 μM, MECA 30 μM; for blocking of ACh elicited currents: 100 μM ACh; for Max Inhibition ± S.E.: inhibition of 100 μM ACh current. On the procedure: (§1) The H. contortus cDNAs encoding AChR subunits and ancillary proteins were available as expression clones in the pTB207 vector and C. elegans expression clones were a gift from T. Boulin.. cRNA synthesis of each construct required NheI-linearized templates and was performed with the mMessage mMachine T7 Kit (Ambion) according to the manufacturer’s instructions. cRNAs were precipitated with lithium chloride and redissolved in RNAse-free water and stored at -80°C. cRNA concentration was determined using a Nanodrop spectrophotometer (Thermo Scientific) and cRNA purity and integrity was assessed by electrophoresis through a 1% gel stained with GreenGlo nucleic acid dye (Denville Scientific Inc.).
(§2) Oocytes were collected from mature Xenopus females according to standard procedures and incubated at 19°C in a ND96 solution (NaCl 96 mM, KCl 2 mM, CaCl2 1.8 mM, MgCl2 1 mM, and HEPES 5 mM, pH 7.3 supplemented with sodium pyruvate 2.5 mM). Defolliculated oocytes were injected into the animal pole with approximately 36 nL of a cRNA mix containing 50 ng/μL of each cRNA in RNAse-free water using the Nanoject system (Drummond Scientific, Broomall, PA). Negative controls consisted of oocytes injected with RNAse-free water. Oocytes were then stored at 19°C in ND96 for 5 days to allow receptor expression. In order to prevent activation of endogenous calcium-activated chloride channels, the oocytes were incubated in ND96 supplemented with 100 μM of the calcium chelator BAPTA-AM, 4h prior to recording.
(§3) Two-electrode voltage-clamp experiments were carried out using a perfusion system connected to a flat RC-1Z chamber (Harvard Apparatus). Glass electrodes were filled with 3M KCl and checked for resistance between 1 and 3 MΩ. The oocyte bath was connected to the ground through a 3 M KCl agar bridge. Agonist and antagonists were dissolved or diluted in recording solution (100 mM NaCl, 2.5 mM KCl, 1 mM CaCl2, 5 mM HEPES, pH 7.3). All measurements were performed using a Geneclamp 500B amplifier and Digidata 1322M (Axon Instruments), oocytes were voltage-clamped at -60 mV. Drug solutions were applied to oocytes by gravity flow using perfusion syringes directly connected to the chamber. Data were collected and analyzed using Clampex 9.2 and Clampfit 9.2 (Axon Instruments, Sunnyvale, CA, USA). Traces were filtered at 30 Hz and analyzed using GraphPad Prism 5.0 software (GraphPad Software, San Diego, CA, USA). Final results are presented as means ± SE.

For assay [2], the target named is H. contortus L-AChR1.1 (UNC-63, UNC-38, ACR-8, UNC-29.1) (Haemonchus contortus, UniProt A9XX24+D6MYE9+D6MYF3+D6MYF4). Conditions: for Emax at 100 µM: agonists at 100 μM, normalized to 100 μM acetylcholine; for Emax at 100 µM / Emax: read-out: Max. Current ± S.E.; for blocking of ACh elicited currents / Max. Inhibition ± S.E.: dTC 100 μM, DHβE 10 μM, MECA 30 μM; for blocking of ACh elicited currents: 100 μM ACh; for Max. Inhibition ± S.E.: inhibition of 100 μM ACh current. The method, then: as §1, §2, §3

Assay [3] concerns the target H. contortus L-AChR1.3 (UNC-63, UNC-38, ACR-8, UNC-29.3) (Haemonchus contortus, UniProt A9XX24+D6MYF1+D6MYF3+D6MYF4). Conditions: for Emax at 100 µM: agonists at 100 μM, normalized to 100 μM acetylcholine; for Emax at 100 µM / Emax: read-out: Max. Current ± S.E.; for blocking of ACh elicited currents / Max Inhibition ± S.E.: dTC 100 μM, DHβE 10 μM, MECA 30 μM; for blocking of ACh elicited currents: 100 μM ACh; for Max Inhibition ± S.E.: inhibition of 100 μM ACh current. On the procedure: as §1, §2, §3

[4] abbreviates: read-out: blocking of ACh elicited currents.

Counter-ions that a name gives are not always drawn.

As to `C[N+](C)(CCOc1ccccc1)Cc1ccccc1` [Bephenium, bephenium hydroxynaphtoate], the Emax at 100 µM in assay [1] (L-AChR1.4) turned out to be 6.45 ± 0.84%; in assay [2] (L-AChR1.1), 13.9 ± 1.7%; in assay [3] (L-AChR1.3), 9.59 ± 0.83%.

Regarding `COc1cc2c3cc1Oc1cc(ccc1O)C[C@@H]1c4c(cc(OC)c(O)c4Oc4ccc(cc4)C[C@@H]3N(C)CC2)CC[N+]1(C)C` [D-turbocurarine, (+)-tubocurarine chloride hydrate], the “blocking of ACh elicited currents” value in assay [1] (L-AChR1.4), in assay [2] (L-AChR1.1) and in assay [3] (L-AChR1.3) was “efficiently blocked the ACh responses” in each case. Also, the “Max Inhibition ± S.E.” value in assay [1] (L-AChR1.4) came out at 97.52 ± 1.09; in assay [3] (L-AChR1.3) it was 99.98 ± 0.02. For the same compound, in assay [2] (L-AChR1.1), the “Max. Inhibition ± S.E.” value was found to be 99.63 ± 0.35.

Turning to `Br.CO[C@H]1CC=C2CCN3CCC4=C(CC(=O)OC4)[C@]23C1` [DHßE, Dihydro-berythroidine hydrobromide], in assay [1] (L-AChR1.4), the “blocking of ACh elicited currents” value is “weak average inhibition” and the “Max Inhibition ± S.E.” value is reported as 16.51 ± 5.73. In assay [2] (L-AChR1.1), the “blocking of ACh elicited currents” value is “weak average inhibition” and the “Max. Inhibition ± S.E.” value is given as 15.98 ± 2.16. In assay [3] (L-AChR1.3), the “blocking of ACh elicited currents” value is recorded as “weak average inhibition” and the “Max Inhibition ± S.E.” value turned out to be 23.55 ± 1.94.

As to `C[N+]1(C)CCN(c2ccccc2)CC1` [DMPP, 1,1-dimethyl-4-phenylpiperazinium iodide], the Emax at 100 µM in assay [1] (L-AChR1.4) is 31.6 ± 1%; in assay [2] (L-AChR1.1), 42 ± 1.41%; in assay [3] (L-AChR1.3), 36.9 ± 3.93%.

For `CNC1(C)C2CCC(C2)C1(C)C` (centres unmarked) [Mecamylamine, mecamylamine hydrochloride], the “MECA inhibition (summary)” value was “Full Inhibition” in assay [1] (L-AChR1.4), “Full Inhibition” in assay [2] (L-AChR1.1) and “Partial Inhibition” in assay [3] (L-AChR1.3). For the same compound, the figures for the inhibition at 30 µM in assay [1] (setting [4]), in assay [2] (setting [4]) and in assay [3] (setting [4]) were 96.4 ± 1.9%, 99.9 ± 0.1% and 56.9 ± 3.2%, respectively. Moreover, in assay [2] (L-AChR1.1), the “Max. Inhibition ± S.E.” value was found to be 99.91 ± 0.09. In assay [3] (L-AChR1.3), the “Max Inhibition ± S.E.” value worked out at 56.87 ± 3.18.

As for `CN1CCC[C@H]1c1cccnc1` [Nicotine, (-)-nicotine hydrogen tartrate], the values for the Emax in assay [1], in assay [2] and in assay [3] were 1.52 ± 0.47%, 4.7 ± 1.05% and 6.79 ± 1.46%, respectively.

For `CN1CCCN=C1/C=C/c1cccs1` [Pyrantel, pyrantel citrate], the results for the Emax in assay [1], in assay [2] and in assay [3] were 7.32 ± 0.98%, 11.8 ± 0.99% and 13.8 ± 1.26%, respectively.
